A word on the melting point: it is the temperature, or range, at which the solid turns liquid.

Consider 67 molecules from a melting point compilation (Tetko et al.; mined from patent text by program, amines drawn as free bases though some values may be those of a salt).

`CC(=O)Nc1cccc2cccc(N=[N+]=[N-])c12` displayed a melting point of 148 to 149 °C.
In turn, `COCOc1c(N=Nc2ccc(OC)cc2)cc(OC)cc1C(C)(C)C` showed a melting point of 102 to 103 °C.
Under `CC(C(=O)O)c1ccc2c(c1)Cc1cccnc1O2` (configuration not stated) stands 183 to 184 °C; under `CC(C)Oc1ccccc1-c1nc2ccc(C(=O)O)cc2c(=O)[nH]1`, 316 to 318 °C.
As for `Cc1oc(-c2ccc(Cl)cc2)nc1CC(=O)O`, the melting point lay within 160 to 161 °C.
With `CC1CN(c2c(F)cc3c(=O)c(C(=O)O)cn(C4CC4)c3c2C#N)CCN1` (configuration not stated) the figure was > 300 °C; with `COc1ccc2cc3c(c(-c4ccc(OC(F)(F)F)cc4)c2c1)C(=O)NC3=O`, 282 to 284 °C.
`O=C(OCc1ccccc1)c1n[nH]c2c(=O)[nH]c3cc(Cl)ccc3c(=O)c12` returned a melting point of 254 °C.
With `CCOC(=O)c1c[nH]cc1-c1ccc(Cl)cc1` the figure was 137 to 138 °C; with `O=C1c2ccc(Cl)cc2OCc2cccnc21`, 100 to 102 °C; with `CCOC(=O)c1cn(NC=O)c2cc(-n3cccc3)c(F)cc2c1=O`, 254 to 257 °C.
In the case of `CON=Cc1cnnc2ccccc12`, the melting point lay within 83 to 85 °C.
Molecule `CCOC(=O)c1c(Cl)nc(CC)n1Cc1ccc2oc(-c3ccccc3N)c(Br)c2c1` displayed a melting point of 53 to 56 °C.
With `COc1ccc(-c2c(Br)oc3cc(OC)cc(OC)c23)cc1` the figure was 125 to 126 °C; with `O=C1CC2CC[C@@H](CN3C(=O)c4ccccc4C3=O)OC2O1` (some centres not stated), 186 to 189 °C.
For `CC(C)(C)NC(=NC#N)Nc1cccnc1`, the melting point lay in the range of 205 to 206 °C.
For the molecule `COc1cc2cc(C=NO)c(Cl)nc2cc1OC`, the melting point fell in the range of 237 to 238 °C.
With `O=C(c1cccs1)C(Cc1ccccc1F)n1cncn1` (configuration not stated) the figure was 121 to 122 °C; with `O=Cc1c(F)ccc(Cl)c1Cl`, 55 to 57 °C; with `COC1CCCNC(=O)C1` (configuration not stated), 70 to 73 °C.
Under `CSC1=NCCN1CC(C)O` (configuration not stated) stands 114 to 116 °C; under `COC(=O)Nc1cc(C(C)(C)C)no1`, 86.5 to 87 °C.
Molecule `NC(=O)c1ccc(F)nc1N` displayed a melting point of 198 to 200 °C.
With `Cc1nc2c(N)nc3c(c2n1CCCCS(=O)(=O)C(C)(C)C)CCCC3` the figure was 208 to 210 °C.
`NNc1nccc(-c2ccc(Oc3ccccc3)cc2)c1Cl` had a melting point of 173 °C.
`CCCC(=O)c1cc2c(OCC)cc(C(=O)OCC)nc2cc1C` showed a melting point of 123 to 124 °C.
Under `CCOc1noc(-c2nc[nH]n2)c1C` stands 194 to 196 °C.
Consider `Cc1ccc(-c2cc(C(F)(F)F)n3cnc(-c4ccncc4)c3n2)cc1C(F)(F)F`, for which the melting point came out at 222 °C.
Under `CCC(=O)C1=C(O)OC(C)(C)OC1=O` stands 55 to 57 °C; under `Cc1ccc(S(=O)(=O)N(C)CC(=O)N2CCC[C@H]2C=O)cc1`, 111 °C; under `CCOC(=O)C=C(Nc1cn[nH]c1)C(=O)OCC`, 69 to 71 °C.
With `CCOC(=O)C1=C(COCc2cc(=O)[nH]c(N)n2)NC(C)=C(C(=O)OC)C1c1ccccc1Cl` (configuration not stated) the figure was 185 to 187 °C; with `CC(Oc1ccccc1Cl)c1nnc(C2C(O)NC(=O)N2C)s1` (configuration not stated), 122 to 124 °C; with `CCN(CC)c1nc2ccccc2n2c(C(F)(F)F)nnc12`, 155 to 157 °C.
On to `NC(=O)c1cc(OCCNCC(O)COc2ccccc2-c2cc3ccccc3[nH]2)ccc1O` (configuration not stated), for which the melting point lay in the range of 93 to 95 °C.
Turning to `COc1c(CN2C(=O)c3ccccc3C2=O)n(C)c(=O)c2ccc(Cl)cc12`, the melting point is 248 to 249 °C.
Under `CCN(CC)CC#CC(=O)c1ccc(C)cc1` stands 115 to 117 °C; under `NC(=O)n1nc(-c2ccccc2)cc1N`, 255 °C.
Turning to `CC(C)(C)c1ccc(/C=N/OCCCOc2ccc(C(=O)O)c(NC(=O)c3cc(C(F)(F)F)cc(C(F)(F)F)c3)c2)cc1`, the melting point amounted to 158 °C.
`C#CCN1CC(=O)N(c2c(C)cccc2C)C1=S` yielded a melting point of 117 to 121 °C.
`CC(=O)OC[C@H]1NC(=O)[C@H]1NC(=O)C(=NOC(C)(C)C(=O)OCc1ccc([N+](=O)[O-])cc1)c1csc(NC(=O)CCl)n1` (relative stereo) gave a melting point of 120 to 123 °C.
With `CCOC(=O)c1cc(Br)c2oc(C)c(C)c2c1` the figure was 110 to 111 °C; with `NCCCc1ccc(OCCC2Oc3ccccc3N(Cc3cccc(Cl)c3)C2=O)cc1` (configuration not stated), 109 to 111 °C; with `Cn1c(C#N)cc(Br)c1Br`, 104 to 105 °C.
For `CCCc1ccc(Oc2ccc3c(c2)C=C(C(=O)Nc2ccc(CN(C)C4CCOCC4)cc2)CCS3(=O)=O)cc1`, the melting point lay in the range of 147 to 149 °C.
For the molecule `COC(=O)COc1cc(Cl)c(SCc2cc(-c3ccc(C(F)(F)F)cc3)on2)cc1C`, the melting point fell in the range of 120 to 121 °C.
Under `CCCC[C@H](NC(=O)C(CSC(C)=O)C(F)(F)F)C(=O)O` (some centres not stated) stands 123 to 125 °C; under `O=C1NC(=O)C(=Cc2cc(O)c(O)c(Cl)c2)S1`, 299 to 301 °C.
With `CCc1noc(-c2cc3c4ccccc4n(CCCN4CCC(O)(c5ccccc5)CC4)c3cn2)n1` the figure was 169 to 170 °C; with `CCCCCCC(=O)NCCO`, 91 to 93 °C.
`CNC(=O)c1ccccc1Sc1ccc(COC(C)=O)cc1[N+](=O)[O-]` came in with a melting point of 111 to 113 °C.
With `COc1ccc(C2Sc3c(ccc4ccccc34)N(CCN(C)C)C(=O)C2O)cc1` (configuration not stated), the melting point lay within 160 to 161 °C.
Under `NCCCCCCO[PH](=O)CC(=O)O` (configuration not stated) stands 236 to 238 °C; under `CCCCOCCOc1ccc(-c2ccc3c(c2)C=C(C(=O)Nc2ccc(O)cc2)CCN3CC(C)C)cc1`, 155 to 157 °C.
With `CC(C)NC1=NS(=O)(=O)c2cc([N+](=O)[O-])ccc2N1`, the melting point is 311 to 313 °C.
With `CCOC(=O)C(=CNc1ncnn1C)C(=O)c1cc(F)c(Cl)nc1Cl` the figure was 102 to 103 °C.
With `COC1C(=O)N=C(NC(=O)Nc2cccc(Cl)c2)N1C` (configuration not stated) the figure was 147 to 149 °C; with `CCC(CC)(CC(=O)Nc1ccc2ccc(OCc3ccc4ccccc4n3)cc2c1)C(=O)O`, 190 to 191 °C.
As to `Cc1ccnc2c1nc(COc1ccc(CC3SC(=O)NC3=O)cc1)n2C` (configuration not stated), the melting point lay in the range of 205 to 207 °C.
Under `CCOC(=O)Cc1ccc2cc(O)ccc2c1` stands 81 to 83 °C.
`COc1cc2c(cc1OC)CC(O)(CC(=O)O)CC2` (configuration not stated) came in with a melting point of 100 to 102 °C.
With `Nc1nc(N)c(CCCCCc2ccccc2)c(CCCCc2ccccc2)n1` the figure was 75 to 78 °C.
With `O=C(Oc1c(F)c(F)c(F)c(F)c1F)c1ccccn1` the figure was 62 to 64 °C; with `CSCC[C@H]1NC(=O)[C@@H]([C@H](C)c2cccc3ccccc23)NC1=O`, 265 to 268 °C; with `FC(F)(F)c1cccc2c(-c3ccccc3)c(Oc3ccccc3)cnc12`, 153 to 155 °C.
As to `OC1c2cc(Cl)ccc2OCC1n1ccnc1` (configuration not stated), the melting point lay within 153 to 160 °C.
Turning to `O=C(O)C1=Cc2cc(S(=O)(=O)Cl)ccc2OC1C(F)(F)F` (configuration not stated), the melting point lay in the range of 208 to 212 °C.
